Data published in patent US8710091B2, “Imidazolidine-2,4-dione derivatives, and use thereof as a cancer drug” (Ipsen Pharma S.A.S., priority 2009, dated 2014).

Key:
LNCaP cells = experiment: Anti-proliferative activity on LNCaP in complete medium (WST-1); assay type: cell-based; conditions: Homo sapiens, 144 h, 144 h incubation, read-out: IC50 on the LNCaP cells in culture (concentration inhibiting cell proliferation by 50%)
Procedure: The anti-proliferative activity of the compounds of the present invention is determined on LNCaP in complete medium by applying the following experimental procedure:
The LNCaP cell type (ATCC, 1740) originating from a prostate carcinoma expressing the androgen receptor, this line is hormone-dependent.
Maintenance of the LNCaP line is carried out in complete culture medium: RPMI, 10% of foetal calf serum, 2 mM glutamine, 100 U/ml penicillin, 0.1 mg/ml of streptomycin and 0.01M HEPES, 1 mM sodium pyruvate, 40% of D-glucose. • Seeding the plates:
The LNCaP line is seeded at 20,000 cells/well in 90 μl of complete medium in 96-well plates coated with poly-D-lysine (Biocoat, Costar). • Treatment of the cells: 24 h after the seeding, the cells are treated with 10 μl/well of compound diluted in the culture medium. Experiments of the effect of doses of the compound are carried out on a scale of 1 nM to 100 µM. The concentrations used are the following: 1 nM/10/30/100/300/1000/3000/10,000/100,000 nM. Testosterone (SIGMA T1500) is used as a reference and tested at the same concentrations. The cells are incubated for 144 h at 37° C., 5% CO2. • Reading: On D6, 10 μL of the “WST-1 cell proliferation” reagent (Roche ref 1644807) is added to each well. After incubation for 2 hours at 37° C., 5% CO2, the absorbance at 450 nm is measured by spectrophotometry (Envision, Perkin Elmer). • Results: The experiments are carried out in duplicate and the best compounds are tested twice. […] 2. Antiproliferative Activity on LNCaP in Medium without Steroids: […]

DU145 cells = experiment: Antiproliferative activity on DU-145 in complete medium (WST-1); assay type: cell-based; conditions: Homo sapiens, 144 h incubation, read-out: IC50 on the DU145 cells in culture (concentration inhibiting cell proliferation by 50%)
Procedure: The anti-proliferative activity of the compounds of the present invention is determined on DU-145 in complete medium.
Maintenance of the DU-145 line is carried out in DMEM, 10% of foetal calf serum, 2 mM of glutamine, 100 U/ml of penicillin, 0.1 mg/ml of streptomycin. • Seeding the plates: • The DU145 line is seeded at 400 or 800 cells/well in 90 μl of DMEM complete medium in 96-well plates (TPP). • Treatment of the cells: 24 h after the seeding, the cells are treated with 10 μl/well of compound diluted in the culture medium. Experiments showing the dose-effect of the compound are carried out on a scale of 1 nM to 100 μM. The concentrations used are the following: 1 nM/10/30/100/300/1000/3000/10,000/100,000 nM. The cells are incubated for 144 h at 37° C., 5% CO2. • Reading: On D6, 10 μL, of cell proliferation reagent WST-1 (Roche ref 1644807) is added to each well. After incubation for 2 to 4 hours at 37° C., 5% CO2, the absorbance at 450 nm is measured by spectrophotometry (Envision, Perkin Elmer). • Results: The experiments are carried out in duplicate and the best compounds are tested twice. […] 4. Measurement of the Disappearance of the Androgen Receptor

Compound	IC50 (LNCaP cells) [µM]	IC50 (DU145 cells) [µM]
CC1(C)C(=O)N(c2ccc([N+](=O)[O-])c(C(F)(F)F)c2)C(=O)N1CCCCCCCCCSCCCC(F)(F)C(F)(F)F [Example 1, 5,5-dimethyl-3-[4-nitro-3-(trifluoromethyl)phenyl]-1-{9-[(4,4,5,5,5-pentafluoropentyl)thio]nonyl}imidazolidine-2,4-dione]	< 2	> 10
CC1(C)C(=O)N(c2ccc([N+](=O)[O-])c(C(F)(F)F)c2)C(=O)N1CCCCCCCCC[S+]([O-])CCCC(F)(F)C(F)(F)F (stereo not drawn) [Example 2, 5,5-dimethyl-3-[4-nitro-3-(trifluoromethyl)phenyl]-1-{9-[(4,4,5,5,5-pentafluoropentyl)sulphinyl]nonyl}imidazolidine-2,4-dione]		> 10
CC1(C)C(=O)N(c2ccc([N+](=O)[O-])c(C(F)(F)F)c2)C(=O)N1CCCCCCCCCS(=O)(=O)CCCC(F)(F)C(F)(F)F [Example 3, 5,5-dimethyl-3-[4-nitro-3-(trifluoromethyl)phenyl]-1-{9-[(4,4,5,5,5-pentafluoropentyl)sulphonyl]nonyl}imidazolidine-2,4-dione]	< 2	> 10
CC1(C)C(=O)N(c2ccc([N+](=O)[O-])c(C(F)(F)F)c2)C(=O)N1CCCCCSCCCC(F)(F)C(F)(F)F [Example 4, 5,5-dimethyl-3-[4-nitro-3-(trifluoromethyl)phenyl]-1-{5-[(4,4,5,5,5-pentafluoropentyl)thio]pentyl}imidazolidine-2,4-dione]	< 2	> 10
CC1(C)C(=O)N(c2ccc([N+](=O)[O-])c(C(F)(F)F)c2)C(=O)N1CCCCC[S+]([O-])CCCC(F)(F)C(F)(F)F (stereo not drawn) [Example 5, 5,5-dimethyl-3-[4-nitro-3-(trifluoromethyl)phenyl]-1-{5-[(4,4,5,5,5-pentafluoropentyl)sulphinyl]pentyl}imidazolidine-2,4-dione]	< 2	> 10
CC1(C)C(=O)N(c2ccc([N+](=O)[O-])c(C(F)(F)F)c2)C(=O)N1CCCCCCCC[S+]([O-])CCCC(F)(F)C(F)(F)F (stereo not drawn) [Example 7, 5,5-dimethyl-3-[4-nitro-3-(trifluoromethyl)phenyl]-1-{8-[(4,4,5,5,5-pentafluoropentyl)sulphinyl]octyl}imidazolidine-2,4-dione]	< 2	> 10
CC1(C)C(=O)N(c2ccc([N+](=O)[O-])c(C(F)(F)F)c2)C(=O)N1CCCCCCCCCCSCCCC(F)(F)C(F)(F)F [Example 8, 5,5-dimethyl-3-[4-nitro-3-(trifluoromethyl)phenyl]-1-{10-[(4,4,5,5,5-pentafluoropentyl)thio]decyl}imidazolidine-2,4-dione]		> 10
CC1(C)C(=O)N(c2ccc([N+](=O)[O-])c(C(F)(F)F)c2)C(=O)N1CCCCCCCCCC[S+]([O-])CCCC(F)(F)C(F)(F)F (stereo not drawn) [Example 9, 5,5-dimethyl-3-[4-nitro-3-(trifluoromethyl)phenyl]-1-{10-[(4,4,5,5,5-pentafluoropentyl)sulphinyl]decyl}imidazolidine-2,4-dione]		> 10
CC1(C)C(=O)N(c2ccc([N+](=O)[O-])c(C(F)(F)F)c2)C(=O)N1CCCCCCCCCCC[S+]([O-])CCCC(F)(F)C(F)(F)F (stereo not drawn) [Example 11, 5,5-dimethyl-3-[4-nitro-3-(trifluoromethyl)phenyl]-1-{11-[(4,4,5,5,5-pentafluoropentyl)sulphinyl]undecyl}imidazolidine-2,4-dione]	< 2	> 10
CC1(C)C(=O)N(c2ccc([N+](=O)[O-])c(C(F)(F)F)c2)C(=O)N1CCCCCCCCCSCCC(F)(F)C(F)(F)C(F)(F)C(F)(F)F [Example 14, 5,5-dimethyl-3-[4-nitro-3-(trifluoromethyl)phenyl]-1-{9-[(3,3,4,4,5,5,6,6,6-nonafluorohexyl)thio]nonyl}imidazolidine-2,4-dione]		> 10
CC1(C)C(=O)N(c2ccc([N+](=O)[O-])c(C(F)(F)F)c2)C(=O)N1CCCCCCCCC[S+]([O-])CCC(F)(F)C(F)(F)C(F)(F)C(F)(F)F (stereo not drawn) [Example 15, 5,5-dimethyl-3-[4-nitro-3-(trifluoromethyl)phenyl]-1-{9-[(3,3,4,4,5,5,6,6,6-nonafluorohexyl)sulphinyl]nonyl}imidazolidine-2,4-dione]	< 2	> 10
CC1(C)C(=O)N(c2ccc(N)c(C(F)(F)F)c2)C(=O)N1CCCCCCCCCSCCCC(F)(F)C(F)(F)F [Example 16, 3-[4-amino-3-(trifluoromethyl)phenyl]-5,5-dimethyl-1-{9-[(4,4,5,5,5-pentafluoropentyl)thio]nonyl}imidazolidine-2,4-dione]		> 10
CC1(C)C(=O)N(c2ccc(C#N)c(C(F)(F)F)c2)C(=O)N1CCCCCCCCC[S+]([O-])CCCC(F)(F)C(F)(F)F (stereo not drawn) [Example 20, 4-(4,4-dimethyl-2,5-dioxo-3-{9-[(4,4,5,5,5-pentafluoropentyl)sulphinyl]nonyl}imidazolidin-1-yl)-2-(trifluoromethyl)benzonitrile]	< 2	> 10
CC1(C)C(=O)N(c2ccc(C(N)=O)c(C(F)(F)F)c2)C(=O)N1CCCCCCCCC[S+]([O-])CCCC(F)(F)C(F)(F)F (stereo not drawn) [Example 22, 4-(4,4-dimethyl-2,5-dioxo-3-{9-[(4,4,5,5,5-pentafluoropentyl)sulphinyl]nonyl}imidazolidin-1-yl)-2-(trifluoromethyl)benzamide]	< 2	> 10
Cc1cc(N2C(=O)N(CCCCCCCCC[S+]([O-])CCCC(F)(F)C(F)(F)F)C(C)(C)C2=O)ccc1N (stereo not drawn) [Example 26, 3-(4-amino-3-methylphenyl)-5,5-dimethyl-1-{9-[(4,4,5,5,5-pentafluoropentyl)sulphinyl]nonyl}imidazolidine-2,4-dione]		> 10
CC1(C)C(=O)N(c2ccc([N+](=O)[O-])cc2C(F)(F)F)C(=O)N1CCCCCCCCC[S+]([O-])CCCC(F)(F)C(F)(F)F (stereo not drawn) [Example 35, 5,5-dimethyl-3-[4-nitro-2-(trifluoromethyl)phenyl]-1-{9-[(4,4,5,5,5-pentafluoropentyl)sulphinyl]nonyl}imidazolidine-2,4-dione]		> 10
CC1(C)C(=O)N(c2ccc([N+](=O)[O-])c(C(F)(F)F)c2)C(=O)N1CCOCCOCCSCCCC(F)(F)C(F)(F)F [Example 36, 5,5-dimethyl-3-[4-nitro-3-(trifluoromethyl)phenyl]-1-[2-(2-{2-[(4,4,5,5,5-pentafluoropentyl)sulphanyl]ethoxy}ethoxy)ethyl]imidazolidine-2,4-dione]		> 10
CC(=O)Nc1ccc(N2C(=O)N(CCOCCOCCSCCCC(F)(F)C(F)(F)F)C(C)(C)C2=O)cc1C(F)(F)F [Example 38, N-[4-{4,4-dimethyl-2,5-dioxo-3-[2-(2-{2-[(4,4,5,5,5-pentafluoropentyl)sulphanyl]ethoxy}ethoxy)ethyl]imidazolidin-1-yl}-2-(trifluoromethyl)phenyl]acetamide]		> 10
CC(=O)Nc1ccc(N2C(=O)N(CCOCCOCC[S+]([O-])CCCC(F)(F)C(F)(F)F)C(C)(C)C2=O)cc1C(F)(F)F (stereo not drawn) [Example 39, N-[4-{4,4-dimethyl-2,5-dioxo-3-[2-(2-{2-[(4,4,5,5,5-pentafluoropentyl)sulphinyl]ethoxy}ethoxy)ethyl]imidazolidin-1-yl}-2-(trifluoromethyl)phenyl]acetamide]		> 10
CC1(C)C(=O)N(c2ccc([N+](=O)[O-])c(C(F)(F)F)c2)C(=O)N1CCCCCCCCC/S(CCCC(F)(F)C(F)(F)F)=N/C(=O)C(F)(F)F (stereo not drawn) [Example 44, N-[(1Z)-(9-{5,5-dimethyl-3-[4-nitro-3-(trifluoromethyl)phenyl]-2,4-dioxoimidazolidin-1-yl}nonyl)(4,4,5,5,5-pentafluoropentyl)-λ^4-sulphanylidene]-2,2,2-trifluoroacetamide]		> 10
CC1(C)C(=O)N(c2ccc([N+](=O)[O-])c(C(F)(F)F)c2)C(=O)N1CCCCCCCCCS(=N)(=O)CCCC(F)(F)C(F)(F)F (stereo not drawn) [Example 46, 5,5-dimethyl-3-[4-nitro-3-(trifluoromethyl)phenyl]-1-{9-[S-(4,4,5,5,5-pentafluoropentyl)sulphonimidoyl]nonyl}imidazolidine-2,4-dione]	< 2	
